Source: patent US8679478B2, “Methods of lysosomal storage disease therapy” (Duke University, priority 2010, dated 2014)

How the values were obtained:
Assay type in all cases: in vivo, mouse
GAA-KO mice [1] = experiment: Glycogen content in muscles, ERT plus clenbuterol or albuterol; settings: ERT plus albuterol 30 μg/ml drinking water
Procedure: FIG. 8A-8C depicts increased GAA uptake and increased glycogen clearance in GAA-KO mice following clenbuterol treatment and ERT. […] GAA-KO mice were administered four weekly doses of rhGAA (20 mg/kg), and treated with clenbuterol (n=6) or untreated (n=5). […] Mean+/−standard deviation are shown. Statistically significant differences indicated (*=p<0.05; **=p<0.01).
GAA-KO mice were treated with weekly rhGAA (20 mg/kg): with medium clenbuterol, […] (n=6), with low clenbuterol, 1.3 mg/ml (n=6), with albuterol 30 mg/ml (n=4), or without drug treatment (n=3). Drugs were administered in the drinking water. Mean+/−s.d. shown. Statistically significant differences indicated (*=p<0.05; **=p<0.01).
(§1) For in vivo analysis of AAV vectors, stocks were administered intravenously (via the retroorbital sinus) in 3 month-old and 15 month-old GAA-KO mice, and to 3 month-old tolerant GAA-KO and DKO mice. Clenbuterol (30 μg/ml) was administered to groups of 3 month-old vector-injected and mock-injected male GAA-KO mice in drinking water for 28 days. At the indicated time points post-injection, tissue samples were obtained and processed as described below. All animal procedures were done in accordance with Duke University Institutional Animal Care and Use Committee-approved guidelines. GAA activity and glycogen content were analyzed essentially as described (Sun et al., Mol. Ther., 2005, 11:889-898; Sun et al., Mol. Ther., 2005, 11: 57-65). Rotarod testing was performed essentially as described (Sun, B. D. et al. 2005). Western blotting of hGAA was performed essentially as described (Amalfitano et al., Proc. Natl. Acad. Sci. USA, 1999, 96: 8861-8866) using the hGAA monoclonal antibody (courtesy of Genzyme Corp., Framingham, Mass.) and the CI-MPR antibody (catalog number GTX28093; Gene Tex, Irvine, Calif.).
The efficacy from gene therapy was increased by β2 agonist stimulation from clenbuterol treatment, and this benefit might be expected to affect ERT in Pompe disease, as well. Therefore, groups of 3 month-old GAA-KO mice were treated with four weekly doses of rhGAA (20 mg/kg), with or without concurrent clenbuterol treatment.

[2] = system: immune tolerant GAA-KO mice; experiment: Rotarod testing, ERT plus β2 agonist (Example 6); settings: one week later (than 4 weeks); albuterol 30 mg/l drinking water plus ERT v. ERT alone
Procedure: GAA-KO mice were administered four weekly doses of rhGAA (20 mg/kg), and treated with medium dose clenbuterol (n=7), albuterol (n=4) or untreated (n=6 or 3). […] Mean+/−standard deviation are shown. P values indicate statistically significant differences (lines).
Two β2 agonists were evaluated in combination with ERT, clenbuterol and albuterol. The dose of clenbuterol was reduced 5-fold from the concentration used in Example 4, to 6 mg/l in drinking water, while albuterol was evaluated at the higher dose (30 mg/l in drinking water). Groups of 3 month-old immune tolerant GAA-KO mice (Raben et al., Human Mol. Genet., 2001, 10:2039-2047) were treated with four weekly doses of rhGAA (20 mg/kg body weight), with or without concurrent β2 agonist treatment.
Mice were sacrificed 7 days after the last injection. Selected tissues were collected for GAA enzyme activity and glycogen content analyses. […] GAA activity and glycogen content analyses, Rotarod testing, and Western blot detection of CI-MPR was performed essentially as described (Koeberl et al., Mol. Genet. Metab., 2011, 103:107-112. Wire hang testing was performed with a 0.5 cm mesh hardware cloth fixed to an 8 by 10 inch frame. Mice were placed on the wire mesh, which was slowly inverted 6 inches over a cage containing paper bedding. The latency, or time until the mouse fell into the cage, was recorded.

[3] = system: immune tolerant GAA-KO mice; experiment: GAA activity in tissues, ERT plus β2 agonist (Example 6)
Procedure: (§2) Male GAA-KO mice were administered four weekly doses of 20 mg/kg body weight of rhGAA and sacrificed one week following the last injection. Groups of mice were treated with clenbuterol (n=6), albuterol (n=4) or untreated (n=6). Mice were euthanized for tissue analysis 5 weeks after initiation of ERT.
(§3) Cerebral and cerebellar hemispheres were analyzed 5 weeks following the initiation of ERT. Groups of mice were treated with clenbuterol (n=6), albuterol (n=4) or untreated (n=6).
(§4) Two β2 agonists were evaluated in combination with ERT, clenbuterol and albuterol. […] Groups of 3 month-old immune tolerant GAA-KO mice (Raben et al., Human Mol. Genet., 2001, 10:2039-2047) were treated with four weekly doses of rhGAA (20 mg/kg body weight), with or without concurrent β2 agonist treatment.
(§5) Mice were sacrificed 7 days after the last injection. Selected tissues were collected for GAA enzyme activity and glycogen content analyses. All animal procedures were done in accordance with Duke University Institutional Animal Care and Use Committee-approved guidelines. GAA activity and glycogen content analyses, Rotarod testing, and Western blot detection of CI-MPR was performed essentially as described (Koeberl et al., Mol. Genet. Metab., 2011, 103:107-112. Wire hang testing was performed with a 0.5 cm mesh hardware cloth fixed to an 8 by 10 inch frame. Mice were placed on the wire mesh, which was slowly inverted 6 inches over a cage containing paper bedding. The latency, or time until the mouse fell into the cage, was recorded.

[4] = system: immune tolerant GAA-KO mice; experiment: Glycogen content in tissues, ERT plus β2 agonist (Example 6)
Procedure: as §2, §3, §4, §5

[5] = system: immune tolerant GAA-KO mice; experiment: Histopathology of brain, glycogen staining; settings: cerebellum; in comparison with ERT alone
Procedure: Histopathology was performed to examine brain involvement, and glycogen accumulations were detected in the cerebellum with ERT alone. Albuterol and clenbuterol each reduced the glycogen staining in the cerebellum, in comparison with ERT alone.

[6] = system: CI-MPR-KO/GAA-KO (DKO) mice v. GAA-KO (Pompe disease) mice; experiment: GAA enzyme activity in tissues after rhGAA administration, DKO v. GAA-KO mice; settings: for GAA decrease in DKO v. GAA-KO (%): rhGAA four weekly doses, dose not given
Procedure: (§6) CI-MPR-KO mice were generated using a muscle-specific promoter (muscle creatine kinase; CK) and the cre/loxP conditional knock out system essentially as described previously (Wylie et al., Am. J. Pathol., 2003, 162: 321-328). The muscle-specific CI-MPR-KO mice were crossed with GAA-KO mice to generate muscle specific DKO mice). This mouse colony was subsequently screened to be GAA−/−, M6PR flox/flox and MCK-Cre positive. These DKO mice and age matched Pompe mice were administered four weekly doses of 20 or 100 mg/kg rhGAA and sacrificed 3 days after the last injection. Selected tissues were collected for GAA enzyme activity levels, glycogen content depletion and Western blot analysis. Pompe and DKO mice injected with vehicle were used as controls.
as §1
(§7) To further understand the role of CI-MPR in recombinant human GAA (rhGAA) uptake and glycogen clearance specifically in Pompe disease, muscle-specific CI-MPR-KO mice were crossed with GAA-KO (Pompe disease) mice. The DKO mice were administered four weekly doses of 20 mg/kg and 100 mg/kg body weight of recombinant human rhGAA and sacrificed three days after the last injection to evaluate GAA enzyme levels and glycogen depletion in the target tissues. […]

[7] = system: CI-MPR-KO/GAA-KO (DKO) mice v. GAA-KO (Pompe disease) mice; experiment: Glycogen content in tissues after rhGAA administration, DKO v. GAA-KO mice; settings: rhGAA four weekly doses, dose not given
Procedure: as §6, §1, §7

DKO mice = experiment: Glycogen clearance after rhGAA in DKO mice
Procedure: as §6, §1
(§8) To further understand the role of CI-MPR in recombinant human GAA (rhGAA) uptake and glycogen clearance specifically in Pompe disease, muscle-specific CI-MPR-KO mice were crossed with GAA-KO (Pompe disease) mice. […]

GAA-KO mice [8] = experiment: Glycogen clearance after rhGAA in GAA-KO (Pompe) mice
Procedure: as §6, §1, §8

CC(C)(C)NCC(O)c1ccc(O)c(CO)c1 (stereo not drawn) [albuterol]
glycogen content of the quadriceps (GAA-KO mice [1]): trend toward decreasing | Rotarod latency [2]: increased latency | GAA activity ([3]; cerebellum, 5 weeks after initiation of ERT, clenbuterol p=0.08, albuterol p=0.09): trend toward increased GAA activity | GAA activity ([3]; tibialis anterior only, albuterol plus ERT v. ERT alone): increased | GAA activity in tissues with reduced glycogen content ([3]; β2 agonist plus ERT v. ERT alone): unchanged | Glycogen content ([4]; cerebellum, β2 agonist plus ERT v. ERT alone): reduced significantly | Glycogen content ([4]; liver, albuterol plus ERT v. ERT alone): significantly reduced | Glycogen content ([4]; quadriceps, albuterol plus ERT v. ERT alone): significantly reduced | glycogen staining (histopathology) [5]: reduced

rhGAA: recombinant human acid α-glucosidase used for enzyme replacement therapy (ERT) in Pompe disease
GAA decrease in DKO v. GAA-KO (%) ([6]; Diaphragm): 2% | GAA decrease in DKO v. GAA-KO (%) ([6]; Gastrocnemius): 72% | GAA decrease in DKO v. GAA-KO (%) ([6]; Heart): 47% | GAA decrease in DKO v. GAA-KO (%) ([6]; Quadriceps): 79% | GAA decrease in DKO v. GAA-KO (%) ([6]; Triceps): 76% | reduced rhGAA uptake in DKO mice as compared with Pompe mice ([6]; heart, 100 mg/kg rhGAA): 50% | rhGAA uptake (enzyme activity) in DKO v. GAA-KO mice ([6]; skeletal tissues (quadriceps, triceps, gastrocnemius), 20 and 100 mg/kg): significantly decreased uptake | Glycogen increase in DKO v. GAA-KO (%) ([7]; Diaphragm): 192% | Glycogen increase in DKO v. GAA-KO (%) ([7]; Gastrocnemius): 340% | Glycogen increase in DKO v. GAA-KO (%) ([7]; Heart): 1600% | Glycogen increase in DKO v. GAA-KO (%) ([7]; Quadriceps): 300% | Glycogen increase in DKO v. GAA-KO (%) ([7]; Triceps): 425% | glycogen clearance (DKO mice; DKO mouse heart, rhGAA 100 mg/kg): 95% | glycogen clearance (DKO mice; heart of DKO mice, rhGAA 20 mg/kg): 7% | glycogen depletion (DKO mice; quadriceps of DKO mice, rhGAA 20 mg/kg): 8% | glycogen clearance (GAA-KO mice [8]; GAA-KO mouse heart, rhGAA 100 mg/kg): 99% | glycogen clearance (GAA-KO mice [8]; heart of Pompe mice, rhGAA 20 mg/kg): 77% | glycogen depletion (GAA-KO mice [8]; quadriceps of GAA-KO mice, rhGAA 20 mg/kg): 55%
